# Laboratory results published in PubChem BioAssay (NCI).
# Several values for one entry are separate records, joined by “and”; a condition that tells them apart may be missing. Identical values can stand only once.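 Where inhibition never reached the appropriate level, the endpoint shown equals the highest concentration tested. Otherwise, values were interpolated linearly from a five-concentration, 48-hour dose response in 96-well plates. Here, GI50 denotes the concentration required for 50% inhibition of growth. TGI is the concentration that stops growth completely.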
# Columns and labels:
# Test in all cases: NCI tumour cell line growth inhibition, 48 h
# HOP-92 NSCLC = test system: HOP-92 NSCLC
# LOX IMVI melanoma = test system: LOX IMVI melanoma
# SN12C renal = test system: SN12C renal
# U251 CNS = test system: U251 CNS
# RXF 393 renal = test system: RXF 393 renal
# NCI/ADR-RES ovarian = test system: NCI/ADR-RES ovarian
# CAKI-1 renal = test system: CAKI-1 renal
# HT29 colon = test system: HT29 colon
# SF-539 CNS = test system: SF-539 CNS
# EKVX NSCLC = test system: EKVX NSCLC
# HCT-15 colon = test system: HCT-15 colon
# HL-60(TB) leukemia = test system: HL-60(TB) leukemia
# SK-OV-3 ovarian = test system: SK-OV-3 ovarian
# DMS 273 small cell lung = test system: DMS 273 small cell lung
# OVCAR-8 ovarian = test system: OVCAR-8 ovarian
# NCI-H460 lung = test system: NCI-H460 lung
# SNB-78 CNS = test system: SNB-78 CNS
# SF-268 CNS = test system: SF-268 CNS
# A549 NSCLC = test system: A549 NSCLC
# MCF7 breast = test system: MCF7 breast
# UO-31 renal = test system: UO-31 renal
# NCI-H522 lung = test system: NCI-H522 lung
# CCRF-CEM leukemia = test system: CCRF-CEM leukemia
# SW-620 colon = test system: SW-620 colon
# A498 renal = test system: A498 renal
# M19-MEL melanoma = test system: M19-MEL melanoma
# NCI-H226 lung = test system: NCI-H226 lung
# SF-295 CNS = test system: SF-295 CNS
# XF 498 CNS = test system: XF 498 CNS
# OVCAR-5 ovarian = test system: OVCAR-5 ovarian
# UACC-257 melanoma = test system: UACC-257 melanoma
# COLO 205 colon = test system: COLO 205 colon
# HCT-116 colon = test system: HCT-116 colon
# MALME-3M melanoma = test system: MALME-3M melanoma
# KM20L2 colon = test system: KM20L2 colon
# DLD-1 colon = test system: DLD-1 colon
# KM12 colon = test system: KM12 colon
# SNB-19 CNS = test system: SNB-19 CNS
# IGROV1 ovarian = test system: IGROV1 ovarian
# SNB-75 CNS = test system: SNB-75 CNS
# SK-MEL-28 melanoma = test system: SK-MEL-28 melanoma
# SK-MEL-5 melanoma = test system: SK-MEL-5 melanoma
# NCI-H23 lung = test system: NCI-H23 lung
# HOP-62 NSCLC = test system: HOP-62 NSCLC
# P388 leukemia = test system: P388 leukemia
# DMS 114 small cell lung = test system: DMS 114 small cell lung
# MOLT-4 leukemia = test system: MOLT-4 leukemia
# OVCAR-4 ovarian = test system: OVCAR-4 ovarian
# OVCAR-3 ovarian = test system: OVCAR-3 ovarian
# K-562 leukemia = test system: K-562 leukemia
# SN12K1 renal = test system: SN12K1 renal
# SK-MEL-2 melanoma = test system: SK-MEL-2 melanoma
# RPMI-8226 leukemia = test system: RPMI-8226 leukemia
# UACC-62 melanoma = test system: UACC-62 melanoma
# HCC-2998 colon = test system: HCC-2998 colon
# HOP-18 NSCLC = test system: HOP-18 NSCLC
# 786-0 renal = test system: 786-0 renal
# ACHN renal = test system: ACHN renal
# LXFL 529 NSCLC = test system: LXFL 529 NSCLC
# RXF-631 renal = test system: RXF-631 renal
# SR leukemia = test system: SR leukemia
# M14 melanoma = test system: M14 melanoma
# TK-10 renal = test system: TK-10 renal
# DU-145 prostate = test system: DU-145 prostate
# P388/ADR leukemia = test system: P388/ADR leukemia
# MDA-N = test system: MDA-N
# MDA-MB-435 = test system: MDA-MB-435
# HS 578T breast = test system: HS 578T breast
# PC-3 prostate = test system: PC-3 prostate
smiles,measurement,setting,value
Nc1cccc2c1C1=NNC(=O)CC1C2 (centres undefined),TGI,HOP-92 NSCLC,4.46 µM
same,TGI,LOX IMVI melanoma,> 100 µM
same,TGI,SN12C renal,> 100 µM
same,TGI,U251 CNS,> 100 µM
same,TGI,RXF 393 renal,> 100 µM
same,TGI,NCI/ADR-RES ovarian,> 100 µM
same,TGI,CAKI-1 renal,> 100 µM
same,TGI,HT29 colon,> 22.9 µM
same,TGI,SF-539 CNS,> 100 µM
same,TGI,EKVX NSCLC,> 100 µM
same,TGI,HCT-15 colon,> 100 µM
same,TGI,HL-60(TB) leukemia,> 100 µM
same,TGI,SK-OV-3 ovarian,> 100 µM
same,TGI,DMS 273 small cell lung,> 100 µM
same,TGI,OVCAR-8 ovarian,> 100 µM
same,TGI,NCI-H460 lung,> 100 µM
same,TGI,SNB-78 CNS,> 100 µM
same,TGI,SF-268 CNS,> 100 µM
same,TGI,A549 NSCLC,> 100 µM
same,TGI,MCF7 breast,> 100 µM
same,TGI,UO-31 renal,> 100 µM
same,TGI,NCI-H522 lung,> 100 µM
same,TGI,CCRF-CEM leukemia,> 100 µM
same,TGI,SW-620 colon,> 100 µM
same,TGI,A498 renal,> 100 µM
same,TGI,M19-MEL melanoma,> 100 µM
same,TGI,NCI-H226 lung,> 100 µM
same,TGI,SF-295 CNS,> 100 µM
same,TGI,XF 498 CNS,> 100 µM
same,TGI,OVCAR-5 ovarian,> 100 µM
same,TGI,UACC-257 melanoma,> 100 µM
same,TGI,COLO 205 colon,> 100 µM
same,TGI,HCT-116 colon,> 100 µM
same,TGI,MALME-3M melanoma,> 100 µM
same,TGI,KM20L2 colon,> 100 µM
same,TGI,DLD-1 colon,> 100 µM
same,TGI,KM12 colon,> 100 µM
same,TGI,SNB-19 CNS,> 100 µM
same,TGI,IGROV1 ovarian,> 100 µM
same,TGI,SNB-75 CNS,> 100 µM
same,TGI,SK-MEL-28 melanoma,> 100 µM
same,TGI,SK-MEL-5 melanoma,> 100 µM
same,TGI,NCI-H23 lung,> 20.3 µM
same,TGI,HOP-62 NSCLC,> 100 µM
same,TGI,P388 leukemia,> 100 µM
same,TGI,DMS 114 small cell lung,> 100 µM
same,TGI,MOLT-4 leukemia,> 100 µM
same,TGI,OVCAR-4 ovarian,> 100 µM
same,TGI,OVCAR-3 ovarian,> 100 µM
same,TGI,K-562 leukemia,> 100 µM
same,TGI,SN12K1 renal,> 100 µM
same,TGI,SK-MEL-2 melanoma,> 100 µM
same,TGI,RPMI-8226 leukemia,> 100 µM
same,TGI,UACC-62 melanoma,> 100 µM
same,TGI,HCC-2998 colon,> 100 µM
CCCCCCCCCCCCCCCCCC(=O)OCC(C[As](=O)(O)O)OC(=O)CCCCCCCCCCCCCCCCC (centres undefined),TGI,HOP-92 NSCLC,40.4 µM
same,TGI,SN12C renal,> 100 µM
same,TGI,U251 CNS,> 100 µM
same,TGI,RXF 393 renal,47 µM
same,TGI,CAKI-1 renal,> 100 µM
same,TGI,HT29 colon,> 100 µM
same,TGI,SF-539 CNS,> 100 µM
same,TGI,EKVX NSCLC,> 100 µM
same,TGI,HCT-15 colon,> 100 µM
same,TGI,HL-60(TB) leukemia,> 100 µM
same,TGI,SK-OV-3 ovarian,50 µM
same,TGI,DMS 273 small cell lung,> 100 µM
same,TGI,OVCAR-8 ovarian,> 100 µM
same,TGI,HOP-18 NSCLC,> 100 µM
same,TGI,NCI-H460 lung,> 100 µM
same,TGI,SNB-78 CNS,> 100 µM
same,TGI,SF-268 CNS,> 100 µM
same,TGI,A549 NSCLC,> 100 µM
same,TGI,786-0 renal,> 100 µM
same,TGI,ACHN renal,> 100 µM
same,TGI,UO-31 renal,> 100 µM
same,TGI,NCI-H522 lung,> 100 µM
same,TGI,CCRF-CEM leukemia,> 100 µM
same,TGI,SW-620 colon,33.8 µM
same,TGI,LXFL 529 NSCLC,> 100 µM
same,TGI,A498 renal,> 100 µM
same,TGI,M19-MEL melanoma,> 100 µM
same,TGI,NCI-H226 lung,70.4 µM
same,TGI,SF-295 CNS,> 100 µM
same,TGI,XF 498 CNS,53 µM
same,TGI,OVCAR-5 ovarian,> 100 µM
same,TGI,RXF-631 renal,> 100 µM
same,TGI,UACC-257 melanoma,> 100 µM
same,TGI,HCT-116 colon,> 100 µM
same,TGI,MALME-3M melanoma,> 100 µM
same,TGI,KM20L2 colon,> 100 µM
same,TGI,DLD-1 colon,> 100 µM
same,TGI,KM12 colon,> 100 µM
same,TGI,SR leukemia,38.9 µM
same,TGI,M14 melanoma,> 100 µM
same,TGI,TK-10 renal,> 100 µM
same,TGI,SNB-19 CNS,77.4 µM
same,TGI,IGROV1 ovarian,> 100 µM
same,TGI,SNB-75 CNS,81.6 µM
same,TGI,SK-MEL-28 melanoma,> 100 µM
same,TGI,SK-MEL-5 melanoma,> 100 µM
same,TGI,NCI-H23 lung,> 100 µM
same,TGI,HOP-62 NSCLC,85.2 µM
same,TGI,DMS 114 small cell lung,34.3 µM
same,TGI,MOLT-4 leukemia,> 100 µM
same,TGI,OVCAR-4 ovarian,> 100 µM
same,TGI,OVCAR-3 ovarian,> 100 µM
same,TGI,K-562 leukemia,> 100 µM
same,TGI,SK-MEL-2 melanoma,> 100 µM
same,TGI,RPMI-8226 leukemia,80.8 µM
same,TGI,UACC-62 melanoma,> 100 µM
same,TGI,HCC-2998 colon,> 100 µM
COC1=C2C[C@@H](C)C[C@@H](OC)[C@@H](O)[C@H](C)/C=C(\C)[C@@H](OC(N)=O)[C@H](OC)/C=C\C=C(/C)C(=O)NC(=CC1=O)C2=O,GI50,LOX IMVI melanoma,0.0208 µM and 0.051 µM and 0.0459 µM
same,TGI,LOX IMVI melanoma,1.48 µM and 1.38 µM
same,TGI,U251 CNS,6.51 µM and 19.4 µM and 4.2 µM
same,TGI,DU-145 prostate,4.66 µM and 10.3 µM and 14.2 µM
same,GI50,RXF 393 renal,0.0245 µM
same,TGI,NCI/ADR-RES ovarian,10.7 µM and 32.8 µM and 10.6 µM
same,TGI,SF-539 CNS,9.47 µM and 12.2 µM and 2.68 µM
same,TGI,SK-OV-3 ovarian,37.5 µM and 18 µM and 8.19 µM
same,TGI,DMS 273 small cell lung,2.05 µM
same,GI50,HOP-18 NSCLC,0.0288 µM
same,TGI,HOP-18 NSCLC,4.92 µM and 1.28 µM
same,GI50,SNB-78 CNS,0.859 µM
same,TGI,SNB-78 CNS,11.7 µM and 7.42 µM
same,TGI,786-0 renal,8.21 µM and 6.04 µM and 13.7 µM
same,TGI,CCRF-CEM leukemia,1.07 µM and 7.4 µM and 4.95 µM
same,TGI,P388/ADR leukemia,1.47 µM
same,TGI,LXFL 529 NSCLC,14.1 µM
same,TGI,A498 renal,17.8 µM and 2.37 µM
same,GI50,XF 498 CNS,0.0356 µM
same,TGI,XF 498 CNS,1.13 µM and 0.853 µM
same,TGI,RXF-631 renal,3.35 µM
same,TGI,UACC-257 melanoma,5.05 µM and 12.7 µM and 2.5 µM
same,GI50,COLO 205 colon,0.0578 µM and 0.015 µM
same,TGI,HCT-116 colon,3.95 µM and 5.44 µM and 1.88 µM
same,TGI,MALME-3M melanoma,8.13 µM and 3.44 µM and 1.13 µM
same,GI50,MDA-N,0.00577 µM
same,TGI,MDA-N,8.51 µM
same,GI50,KM20L2 colon,< 0.0347 µM
same,TGI,KM20L2 colon,0.99 µM and 0.886 µM
same,GI50,DLD-1 colon,0.131 µM
same,TGI,DLD-1 colon,9.63 µM and 3.15 µM
same,TGI,MDA-MB-435,5.5 µM and 8.63 µM and 5.65 µM
same,TGI,SNB-19 CNS,28 µM and 26.5 µM and 10.4 µM
same,GI50,SNB-75 CNS,7.93 µM and 4.68 µM and 1.12 µM
same,TGI,SNB-75 CNS,18.6 µM and 19.2 µM and 3.97 µM
same,TGI,SK-MEL-5 melanoma,8.59 µM [middle of 4 runs]
same,TGI,P388 leukemia,0.48 µM
same,TGI,DMS 114 small cell lung,2.14 µM
same,TGI,SN12K1 renal,2.51 µM
same,GI50,HS 578T breast,1.31 µM and 11.8 µM and 1.25 µM
same,TGI,HS 578T breast,17.5 µM and 42 µM and 38.2 µM
same,TGI,PC-3 prostate,8.01 µM and 5.58 µM and 14.9 µM
